Experiments:
Test in all cases: TLR7/8/9 Inhibition Reporter Assays
Toll-like receptor 7 = biological target: T1, Toll-like receptor 7 (Homo sapiens, UniProt Q9NYK1)
T1 sequence (Q9NYK1 whole entry): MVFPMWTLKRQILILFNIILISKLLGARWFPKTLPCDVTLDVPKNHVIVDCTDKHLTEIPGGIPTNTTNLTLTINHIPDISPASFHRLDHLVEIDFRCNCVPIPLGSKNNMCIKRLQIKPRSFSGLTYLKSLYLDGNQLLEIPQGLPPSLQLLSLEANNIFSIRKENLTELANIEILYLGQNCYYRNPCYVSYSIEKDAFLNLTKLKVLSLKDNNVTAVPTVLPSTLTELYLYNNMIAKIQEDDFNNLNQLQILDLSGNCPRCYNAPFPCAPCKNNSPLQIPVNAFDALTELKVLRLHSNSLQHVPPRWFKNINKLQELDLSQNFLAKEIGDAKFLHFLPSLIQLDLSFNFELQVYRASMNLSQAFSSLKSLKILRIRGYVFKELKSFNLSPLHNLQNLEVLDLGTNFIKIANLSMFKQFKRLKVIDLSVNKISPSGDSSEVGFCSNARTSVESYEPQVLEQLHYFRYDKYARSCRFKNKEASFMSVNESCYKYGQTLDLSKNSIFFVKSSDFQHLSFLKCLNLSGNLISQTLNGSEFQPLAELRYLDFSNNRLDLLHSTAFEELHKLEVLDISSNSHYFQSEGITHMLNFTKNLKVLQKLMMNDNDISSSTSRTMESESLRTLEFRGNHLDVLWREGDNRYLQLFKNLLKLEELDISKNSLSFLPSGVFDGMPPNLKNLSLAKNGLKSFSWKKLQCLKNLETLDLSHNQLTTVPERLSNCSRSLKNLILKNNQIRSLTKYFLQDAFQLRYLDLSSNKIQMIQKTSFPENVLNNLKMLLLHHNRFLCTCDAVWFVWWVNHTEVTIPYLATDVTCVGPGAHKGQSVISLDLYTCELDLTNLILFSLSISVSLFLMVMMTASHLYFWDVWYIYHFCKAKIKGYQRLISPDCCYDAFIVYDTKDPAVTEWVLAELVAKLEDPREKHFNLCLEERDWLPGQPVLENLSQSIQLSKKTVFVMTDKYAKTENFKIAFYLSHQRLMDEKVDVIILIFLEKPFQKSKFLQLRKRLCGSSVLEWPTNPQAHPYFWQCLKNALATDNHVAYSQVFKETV
Procedure: (§1) HEK-Blue-cells (Invivogen) overexpressing human TLR7, TLR8 or TLR9 receptors were used for screening inhibitors of these receptors using an inducible SEAP (secreted embryonic alkaline phosphatase) reporter gene under the control of the IFN-β minimal promoter fused to five NF-κB and AP-1-binding sites. Briefly, cells are seeded into Greiner 384 well plates (15000 cells per well for TLR7, 20,000 for TLR8 and 25,000 for TLR9) and then treated with test compounds in DMSO to yield a final dose response concentration range of 0.05 nM-50 μM. […] After a 22 hour incubation at 37 C., 500 CO2, SEAP levels are determined with the addition of HEK-Blue Detection reagent (Invivogen), a cell culture medium that allows for detection of SEAP, according to manufacturer's specifications. The percent inhibition is determined as the 00 reduction in the HEK-Blue signal present in wells treated with agonist plus DMSO alone compared to wells treated with a known inhibitor.

Toll-like receptor 8 = biological target: T2, Toll-like receptor 8 (Homo sapiens, UniProt Q9NR97)
T2 sequence (Q9NR97 whole entry): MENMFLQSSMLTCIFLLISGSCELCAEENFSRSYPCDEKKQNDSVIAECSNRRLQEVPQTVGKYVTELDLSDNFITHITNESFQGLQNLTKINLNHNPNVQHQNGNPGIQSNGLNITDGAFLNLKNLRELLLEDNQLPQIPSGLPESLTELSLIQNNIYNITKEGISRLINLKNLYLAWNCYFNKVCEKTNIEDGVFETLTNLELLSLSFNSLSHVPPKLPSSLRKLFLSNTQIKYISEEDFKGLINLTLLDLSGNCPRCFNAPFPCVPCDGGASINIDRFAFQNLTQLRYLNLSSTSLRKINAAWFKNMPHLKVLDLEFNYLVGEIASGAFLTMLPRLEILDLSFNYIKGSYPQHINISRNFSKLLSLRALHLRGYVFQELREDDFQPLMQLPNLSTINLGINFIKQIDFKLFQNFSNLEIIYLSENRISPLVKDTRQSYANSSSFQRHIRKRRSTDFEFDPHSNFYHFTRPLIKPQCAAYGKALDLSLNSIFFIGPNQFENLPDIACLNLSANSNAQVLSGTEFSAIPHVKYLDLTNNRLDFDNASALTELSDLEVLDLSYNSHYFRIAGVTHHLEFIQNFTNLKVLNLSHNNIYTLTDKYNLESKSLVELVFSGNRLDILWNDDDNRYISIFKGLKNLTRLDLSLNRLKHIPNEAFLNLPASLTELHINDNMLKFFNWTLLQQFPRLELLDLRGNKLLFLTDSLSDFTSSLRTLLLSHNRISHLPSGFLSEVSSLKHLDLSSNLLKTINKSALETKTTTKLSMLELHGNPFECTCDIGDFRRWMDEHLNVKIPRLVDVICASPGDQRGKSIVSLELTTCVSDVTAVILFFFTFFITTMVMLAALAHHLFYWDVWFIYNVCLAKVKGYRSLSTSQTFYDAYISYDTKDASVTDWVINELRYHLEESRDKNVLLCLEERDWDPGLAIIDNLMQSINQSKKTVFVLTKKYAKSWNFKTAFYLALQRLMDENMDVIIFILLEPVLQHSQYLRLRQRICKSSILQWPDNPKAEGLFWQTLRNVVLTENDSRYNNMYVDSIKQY
Procedure: as §1

Toll-like receptor 9 = biological target: T3, Toll-like receptor 9 (Homo sapiens, UniProt Q9NR96)
T3 sequence (Q9NR96 whole entry): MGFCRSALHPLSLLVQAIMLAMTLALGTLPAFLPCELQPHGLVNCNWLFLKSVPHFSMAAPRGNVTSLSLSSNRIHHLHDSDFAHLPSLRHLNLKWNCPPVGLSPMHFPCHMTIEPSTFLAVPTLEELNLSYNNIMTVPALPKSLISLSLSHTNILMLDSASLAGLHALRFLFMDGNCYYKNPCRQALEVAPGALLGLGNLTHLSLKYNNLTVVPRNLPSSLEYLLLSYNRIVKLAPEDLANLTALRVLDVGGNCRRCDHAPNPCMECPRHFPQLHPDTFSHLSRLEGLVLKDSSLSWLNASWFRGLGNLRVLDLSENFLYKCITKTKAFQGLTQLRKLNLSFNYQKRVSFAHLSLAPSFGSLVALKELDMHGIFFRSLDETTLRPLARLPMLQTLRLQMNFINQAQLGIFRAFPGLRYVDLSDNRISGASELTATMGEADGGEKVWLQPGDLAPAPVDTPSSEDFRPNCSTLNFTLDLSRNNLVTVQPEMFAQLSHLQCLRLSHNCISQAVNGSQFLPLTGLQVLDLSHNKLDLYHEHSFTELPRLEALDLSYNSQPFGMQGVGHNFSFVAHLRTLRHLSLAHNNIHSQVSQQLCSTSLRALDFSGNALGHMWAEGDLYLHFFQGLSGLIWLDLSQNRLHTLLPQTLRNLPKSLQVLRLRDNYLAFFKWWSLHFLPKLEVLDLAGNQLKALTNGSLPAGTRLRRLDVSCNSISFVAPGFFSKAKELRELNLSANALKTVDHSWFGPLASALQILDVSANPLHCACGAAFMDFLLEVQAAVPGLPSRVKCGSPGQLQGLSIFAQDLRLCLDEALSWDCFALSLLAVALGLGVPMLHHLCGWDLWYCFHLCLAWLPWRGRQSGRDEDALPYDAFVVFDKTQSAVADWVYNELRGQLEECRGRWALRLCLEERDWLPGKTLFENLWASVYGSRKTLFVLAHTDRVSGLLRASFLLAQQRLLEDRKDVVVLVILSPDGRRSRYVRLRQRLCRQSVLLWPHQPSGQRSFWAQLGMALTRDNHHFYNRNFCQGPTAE
Procedure: as §1

IC50 (Toll-like receptor 7) [nM]	IC50 (Toll-like receptor 8) [nM]	IC50 (Toll-like receptor 9) [nM]	SMILES
19	12	> 50000	COc1cc(-c2[nH]c3cnc(N4CCN(C5COC5)CC4)cc3c2C(C)C)cn2ncnc12 [US11912703, Example 303]
27	8.5	2870	CNC(=O)CN1CCN(c2cc3c(C(C)C)c(-c4cc(OC)c5ncnn5c4)[nH]c3cn2)CC1 [US11912703, Example 288]
26	23	2030	Cc1c(-c2[nH]c3cnc(C4CCC(N5CC(CO)(CO)C5)CC4)c(F)c3c2C(C)C)cn2ncnc2c1C (configuration not stated) [US11912703, Example 266]
3.7	58	14000	CNCC(=O)N1CCN(c2cc3c(C(C)C)c(-c4cc(OC)c5ncnn5c4)[nH]c3cn2)CC1 [US11912703, Example 289]

From BindingDB's records for patent US11912703 (Bristol Myers Squibb, 2024)
